Measured values published in ChEMBL document CHEMBL1909046, “DrugMatrix in vitro pharmacology data”.

What was measured:
[1] = DRUGMATRIX: GABAA, Muscimol, Central radioligand binding (ligand: [3H] Muscimol); format: cell membranes, Rattus norvegicus, Wistar, Brain, Membrane; settings: Not Active = under 50% inhibition at 10 µM
[2] = target: T1, Alpha-2A adrenergic receptor (Homo sapiens, UniProt P08913); format: cell membranes, Sf9, Membrane; settings: sf9; also: in other assays of this panel Not Active means under 50% inhibition at 10 µM
T1 sequence (P08913 whole entry): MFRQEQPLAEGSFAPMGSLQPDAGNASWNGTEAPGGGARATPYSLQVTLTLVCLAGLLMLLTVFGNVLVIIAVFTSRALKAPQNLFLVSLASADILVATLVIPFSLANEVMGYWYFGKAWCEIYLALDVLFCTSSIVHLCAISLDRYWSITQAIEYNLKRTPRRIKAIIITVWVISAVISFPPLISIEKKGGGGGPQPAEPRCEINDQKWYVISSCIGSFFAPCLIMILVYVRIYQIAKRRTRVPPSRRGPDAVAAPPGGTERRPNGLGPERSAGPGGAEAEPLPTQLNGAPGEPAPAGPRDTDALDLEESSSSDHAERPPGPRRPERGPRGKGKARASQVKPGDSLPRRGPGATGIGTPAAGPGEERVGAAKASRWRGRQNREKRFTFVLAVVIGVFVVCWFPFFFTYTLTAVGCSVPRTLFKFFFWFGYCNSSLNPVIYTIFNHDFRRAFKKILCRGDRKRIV

[3] = target: T2, Alpha-1B adrenergic receptor (Rattus norvegicus, UniProt P15823); test: DRUGMATRIX: Alpha-1B adrenergic receptor radioligand binding (ligand: prazosin); format: cell membranes, Wistar, Liver, Membrane; settings: Not Active = under 50% inhibition at 10 µM
T2 sequence (P15823 whole entry): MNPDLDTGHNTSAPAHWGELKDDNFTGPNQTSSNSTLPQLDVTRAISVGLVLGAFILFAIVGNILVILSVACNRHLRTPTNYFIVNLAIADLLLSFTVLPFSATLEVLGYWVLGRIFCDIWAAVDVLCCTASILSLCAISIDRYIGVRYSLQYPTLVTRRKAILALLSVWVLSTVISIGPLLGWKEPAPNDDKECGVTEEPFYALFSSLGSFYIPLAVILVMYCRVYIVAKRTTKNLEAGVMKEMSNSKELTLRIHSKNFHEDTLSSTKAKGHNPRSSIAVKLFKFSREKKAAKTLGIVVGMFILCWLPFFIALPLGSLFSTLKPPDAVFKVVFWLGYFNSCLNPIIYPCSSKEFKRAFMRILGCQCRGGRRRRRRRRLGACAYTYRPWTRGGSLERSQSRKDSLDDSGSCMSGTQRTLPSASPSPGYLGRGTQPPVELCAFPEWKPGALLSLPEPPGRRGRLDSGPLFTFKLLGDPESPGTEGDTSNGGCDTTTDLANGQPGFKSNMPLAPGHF

[4] = target: T3, Progesterone receptor (Bos taurus, UniProt Q690N0); test: DRUGMATRIX: Progesterone radioligand binding (ligand: [3H] R-5020); format: tissue-based, Uterus; settings: Not Active = under 50% inhibition at 10 µM
T3 sequence (Q690N0 whole entry): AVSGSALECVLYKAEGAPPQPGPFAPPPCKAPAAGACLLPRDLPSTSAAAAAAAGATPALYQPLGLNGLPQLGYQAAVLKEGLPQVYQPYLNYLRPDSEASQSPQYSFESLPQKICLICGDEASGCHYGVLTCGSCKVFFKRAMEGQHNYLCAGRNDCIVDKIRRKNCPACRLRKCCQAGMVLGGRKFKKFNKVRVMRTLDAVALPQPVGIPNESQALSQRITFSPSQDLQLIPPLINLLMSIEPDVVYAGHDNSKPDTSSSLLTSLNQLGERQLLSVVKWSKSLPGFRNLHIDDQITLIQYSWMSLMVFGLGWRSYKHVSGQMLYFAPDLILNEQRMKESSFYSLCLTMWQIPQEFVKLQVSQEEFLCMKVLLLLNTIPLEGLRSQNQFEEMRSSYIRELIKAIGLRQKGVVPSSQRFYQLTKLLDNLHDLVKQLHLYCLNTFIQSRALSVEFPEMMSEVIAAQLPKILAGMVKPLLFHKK

[5] = target: Sigma non-opioid intracellular receptor 1 (Homo sapiens, UniProt Q99720); test: DRUGMATRIX: Sigma1 radioligand binding (ligand: [3H] Haloperidol); format: cell membranes, Jurkat, Membrane; settings: jurkat; Not Active = under 50% inhibition at 10 µM
[6] = DRUGMATRIX: Interleukin IL-1 radioligand binding (ligand: [125I] interleukin 1beta); format: cell membranes, Membrane; settings: nih3t3; Not Active = under 50% inhibition at 10 µM

Sequence of Sigma non-opioid intracellular receptor 1 (Q99720 whole entry): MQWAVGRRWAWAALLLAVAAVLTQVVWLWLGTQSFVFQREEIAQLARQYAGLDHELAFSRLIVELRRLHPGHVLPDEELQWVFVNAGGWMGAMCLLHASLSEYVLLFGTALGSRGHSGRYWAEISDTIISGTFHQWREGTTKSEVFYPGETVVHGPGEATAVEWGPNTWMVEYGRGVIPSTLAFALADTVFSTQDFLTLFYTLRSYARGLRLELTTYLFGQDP

C[N+](C)(C)C[C@H](O)CC(=O)[O-] [LEVOCARNITINE]
Not Active: IC50 [1] | Ki [1] | IC50 [2] | IC50 [3] | IC50 [4] | IC50 [5] | IC50 [6] | Ki [6]

CNC1=Nc2ccc(Cl)cc2C(c2ccccc2)=[N+]([O-])C1 [CHLORDIAZEPOXIDE]
Not Active: IC50 [1] | Ki [1] | IC50 [2] | IC50 [3] | IC50 [4] | IC50 [5] | IC50 [6] | Ki [6]

CC(O)COC[C@H]1O[C@@H]2O[C@H]3[C@H](O)[C@@H](O)[C@@H](O[C@H]4[C@H](O)[C@@H](O)[C@@H](O[C@H]5[C@H](O)[C@@H](O)[C@@H](O[C@H]6[C@H](O)[C@@H](O)[C@@H](O[C@H]7[C@H](O)[C@@H](O)[C@@H](O[C@H]8[C@H](O)[C@@H](O)[C@@H](O[C@H]1[C@H](O)[C@H]2O)O[C@@H]8COCC(C)O)O[C@@H]7COCC(C)O)O[C@@H]6COCC(C)O)O[C@@H]5COCC(C)O)O[C@@H]4COCC(C)O)O[C@@H]3COCC(C)O (stereo partly drawn) [2-HYDROXYPROPYL-BETA-CYCLODEXTRIN]
Not Active: IC50 [1] | Ki [1] | IC50 [2] | IC50 [3] | IC50 [4] | IC50 [5] | IC50 [6] | Ki [6]

C[C@]12CC[C@@H]3c4ccc(O)cc4CC[C@H]3[C@@H]1C[C@@H](O)[C@@H]2O [ESTRIOL]
Not Active: IC50 [1] | Ki [1] | IC50 [2] | IC50 [3] | IC50 [4] | IC50 [5] | IC50 [6] | Ki [6]

O=C(O)P(=O)(O)O [FOSCARNET]
Not Active: IC50 [1] | Ki [1] | IC50 [2] | IC50 [3] | IC50 [4] | IC50 [5] | IC50 [6] | Ki [6]

CC1=NN(c2ccccc2)C(=O)C1 [EDARAVONE]
Not Active: IC50 [1] | Ki [1] | IC50 [2] | IC50 [3] | IC50 [4] | IC50 [5] | IC50 [6] | Ki [6]

CCCNC(C)C(=O)Nc1ccccc1C (stereo not drawn) [PRILOCAINE]
Not Active: IC50 [1] | Ki [1] | IC50 [2] | IC50 [3] | IC50 [4] | IC50 [5] | IC50 [6] | Ki [6]

C[C@@H]1C/C=C/C=C/C=C/C=C/[C@H](O[C@@H]2O[C@H](C)[C@@H](O)[C@H](N)[C@@H]2O)C[C@@H]2O[C@](O)(C[C@@H](O)C[C@H]3O[C@@H]3/C=C/C(=O)O1)C[C@H](O)[C@H]2C(=O)O [NATAMYCIN]
Not Active: IC50 [1] | Ki [1] | IC50 [2] | IC50 [3] | IC50 [4] | IC50 [5] | IC50 [6] | Ki [6]

C[C@H]1O[C@H](O[C@H]2[C@H](O)[C@@H](O)[C@@H](O[C@H]3[C@H](O)[C@@H](O)C(O)O[C@@H]3CO)O[C@@H]2CO)[C@H](O)[C@@H](O)[C@@H]1N[C@H]1C=C(CO)[C@@H](O)[C@H](O)[C@H]1O (stereo partly drawn) [ACARBOSE]
Not Active: IC50 [1] | Ki [1] | IC50 [2] | IC50 [3] | IC50 [4] | IC50 [5] | IC50 [6] | Ki [6]

CN(C)C(=N)NC(=N)N [METFORMIN]
Not Active: IC50 [1] | Ki [1] | IC50 [2] | IC50 [3] | IC50 [4] | IC50 [5] | IC50 [6] | Ki [6]

CCc1ccc(CCOc2ccc(CC3SC(=O)NC3=O)cc2)nc1 (stereo not drawn) [PIOGLITAZONE]
Not Active: IC50 [1] | Ki [1] | IC50 [2] | IC50 [3] | IC50 [4] | IC50 [5] | IC50 [6] | Ki [6]
